SMILES strings stand for the structures.

The first series relates to Human Heme Oxygenase-1 (HMOX-1). Description: ELISA assay to measure human heme oxygenase-1 (HMOX-1) in HepG2 lysate. The conditions noted are these: fold change of human HMOX1 protein levels relative to DMSO control, HepG2. It is filed as cell-based. Put shortly:
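HepG2 cells lysed in PBS/0.5% Triton X-100/1 mM EDTA with protease inhibitors; lysate diluted 1:20. Sandwich ELISA: anti-HO-1 capture (8 μg/ml), biotinylated detection antibody (200 ng/ml), streptavidin-HRP, chemiluminescent read. Quantified against 12-point HO-1 standard curve from 20 ng/ml; incubations at 20 °C.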
(In general: In an ELISA, binding on a coated surface is turned into a signal by an enzyme label.)
With `COCCNC(=O)c1ccc2c(c1)nc(Nc1nc3cc(OC(F)(F)F)ccc3[nH]1)n2C1CCOCC1` [Example 81, N-(2-methoxyethyl)-1-(tetrahydro-2H-pyran-4-yl)-2-((5-(trifluoromethoxy)-1H-benzo[d]imidazol-2-yl)amino)-1H-benzo[d]imidazole-5-carboxamide], the “Maximum Fold induction” value was 19-30.
On the same count and under the same terms, next, `Cn1c(Nc2nc3cc(Cl)ccc3[nH]2)nc2cc(C(=O)O)ccc21` [Example 82, 2-((5-chloro-1H-benzo[d]imidazol-2-yl)amino)-1-methyl-1H-benzo[d]imidazole-5-carboxylic acid]: 29-33; `COCCNC(=O)c1ccc2c(c1)nc(Nc1nc3cc(Cl)ccc3[nH]1)n2C` [Example 83, 2-((5-chloro-1H-benzo[d]imidazol-2-yl)amino)-N-(2-methoxyethyl)-1-methyl-1H-benzo[d]imidazole-5-carboxamide]: 16-21.
Still for that read-out and setting: next, `CCn1c(Nc2nc3ccc(OC(F)(F)F)cc3o2)nc2cc(C(=O)O)ccc21` [Example 84, 1-ethyl-2-((6-(trifluoromethoxy)benzo[d]oxazol-2-yl)amino)-1H-benzo[d]imidazole-5-carboxylic acid]: 17.
With `CCn1c(Nc2nc3ccc(OC(F)(F)F)cc3o2)nc2cc(C(=O)NCCO)ccc21` [Example 86, 1-ethyl-N-(2-hydroxyethyl)-2-((6-(trifluoromethoxy)benzo[d]oxazol-2-yl)amino)-1H-benzo[d]imidazole-5-carboxamide], the “Maximum Fold induction” value is on record as 15-32.
On the same count and under the same terms, for `O=C(O)c1ccc2c(c1)nc(Nc1nc3ccc(OC(F)(F)F)cc3o1)n2CC1CCOC1` (centres unmarked) [Example 87, 1-((tetrahydrofuran-3-yl)methyl)-2-((6-(trifluoromethoxy)-benzo[d]oxazol-2-yl)amino)-1H-benzo[d]imidazole-5-carboxylic acid] the value was 21.
Turning to `CS(=O)(=O)CCn1c(Nc2nc3ccc(OC(F)(F)F)cc3o2)nc2cc(C(=O)O)ccc21` [Example 89, 1-(2-(methylsulfonyl)ethyl)-2-((6-(trifluoromethoxy)benzo[d]oxazol-2-yl)amino)-1H-benzo[d]imidazole-5-carboxylic acid], the “Maximum Fold induction” value stood at 10.
Same read-out and setting: for `COCCNC(=O)c1ccc2c(c1)nc(Nc1nc3ccc(OC(F)(F)F)cc3o1)n2CCS(C)(=O)=O` [Example 90, N-(2-methoxyethyl)-1-(2-(methylsulfonyl)ethyl)-2-((6-(trifluoromethoxy)benzo[d]oxazol-2-yl)amino)-1H-benzo[d]imidazole-5-carboxamide] the value was 22; for `Cn1c(Nc2nc3ccc(Br)cc3o2)nc2cc(C(=O)O)ccc21` [Example 91, 2-((6-bromobenzo[d]oxazol-2-yl)amino)-1-methyl-1H-benzo[d]imidazole-5-carboxylic acid], 17-26; for `COc1ccc2nc(Nc3nc4cc(C(=O)NCCO)ccc4n3C)oc2c1` [Example 92, N-(2-hydroxyethyl)-2-((6-methoxybenzo[d]oxazol-2-yl)amino)-1-methyl-1H-benzo[d]imidazole-5-carboxamide], 12-20.
Still for that read-out and setting: next, `O=C(O)c1ccc2c(c1)nc(Nc1nc3ccc(OC(F)(F)F)cc3o1)n2CC1(O)COC1` [Example 93, 1-((3-hydroxyoxetan-3-yl)methyl)-2-((6-(trifluoromethoxy)benzo[d]oxazol-2-yl)amino)-1H-benzo[d]imidazole-5-carboxylic acid]: 22; `COCCNC(=O)c1ccc2c(c1)nc(Nc1nc3ccc(OC(F)(F)F)cc3o1)n2CC1(O)COC1` [Example 94, 1-((3-hydroxyoxetan-3-yl)methyl)-N-(2-methoxyethyl)-2-((6-(trifluoromethoxy)benzo[d]oxazol-2-yl)amino)-1H-benzo[d]imidazole-5-carboxamide]: 28; `O=C(NCCO)c1ccc2c(c1)nc(Nc1nc3ccc(OC(F)(F)F)cc3o1)n2CC1(O)COC1` [Example 95, N-(2-hydroxyethyl)-1-((3-hydroxyoxetan-3-yl)methyl)-2-((6-(trifluoromethoxy)benzo[d]oxazol-2-yl)amino)-1H-benzo[d]imidazole-5-carboxamide]: 21.
Consider `Cn1c(Nc2nc3ccc(Cl)cc3o2)nc2cc(C(=O)O)ccc21` [Example 96, 2-((6-chlorobenzo[d]oxazol-2-yl)amino)-1-methyl-1H-benzo[d]imidazole-5-carboxylic acid], for which the “Maximum Fold induction” value is on record as 39-56.
On the same count and under the same terms, for `Cn1c(Nc2nc3ccc(Cl)cc3o2)nc2cc(C(=O)NCCO)ccc21` [Example 97, 2-((6-chlorobenzo[d]oxazol-2-yl)amino)-N-(2-hydroxyethyl)-1-methyl-1H-benzo[d]imidazole-5-carboxamide] the value was 33-51; for `Cn1c(Nc2nc3ccc(OCC(F)(F)F)cc3o2)nc2cc(C(=O)O)ccc21` [Example 98, 1-methyl-2-((6-(2,2,2-trifluoroethoxy)benzo[d]oxazol-2-yl)amino)-1H-benzo[d]imidazole-5-carboxylic acid], 36-56; for `COCCNC(=O)c1ccc2c(c1)nc(Nc1nc3ccc(OCC(F)(F)F)cc3o1)n2C` [Example 99, N-(2-methoxyethyl)-1-methyl-2-((6-(2,2,2-trifluoroethoxy)benzo[d]oxazol-2-yl)amino)-1H-benzo[d]imidazole-5-carboxamide], 25-31.
As to `Cn1c(Nc2nc3ccc(OCC(F)(F)F)cc3o2)nc2cc(C(=O)NCCO)ccc21` [Example 100, N-(2-hydroxyethyl)-1-methyl-2-((6-(2,2,2-trifluoroethoxy)benzo[d]oxazol-2-yl)amino)-1H-benzo[d]imidazole-5-carboxamide], the “Maximum Fold induction” value is on record as 24-35.
The same measure, in the same setting: for `Cn1c(Nc2nc3ccc(OCCO)cc3o2)nc2cc(C(=O)O)ccc21` [Example 101, 2-((6-(2-hydroxyethoxy)benzo[d]oxazol-2-yl)amino)-1-methyl-1H-benzo[d]imidazole-5-carboxylic acid] the value was 21.
The same measure, in the same setting: next, `COCCNC(=O)c1ccc2c(c1)nc(Nc1nc3ccc(OCCO)cc3o1)n2C` [Example 102, 2-((6-(2-hydroxyethoxy)benzo[d]oxazol-2-yl)amino)-N-(2-methoxyethyl)-1-methyl-1H-benzo[d]imidazole-5-carboxamide]: 26-40; `Cn1c(Nc2nc3ccc(OCCO)cc3o2)nc2cc(C(=O)NCCO)ccc21` [Example 103, 2-((6-(2-hydroxyethoxy)benzo[d]oxazol-2-yl)amino)-N-(2-hydroxyethyl)-1-methyl-1H-benzo[d]imidazole-5-carboxamide]: 37-39.

Staying with this series, now noted: human HMOX1 protein in HepG2 lysate, ELISA; * = average of 2 or more EC50 determinations; NA = Not Active.
One may read the EC50 as the concentration giving half of the maximal effect. `CCn1c(Nc2nc3ccc(OC(F)(F)F)cc3o2)nc2cc(C(=O)NCCOC)ccc21` [Example 85, 1-ethyl-N-(2-methoxyethyl)-2-((6-(trifluoromethoxy)benzo[d]oxazol-2-yl)amino)-1H-benzo[d]imidazole-5-carboxamide]: it took 1.3 µM to reach a half-maximal effect (EC50).
The same measure, in the same setting: next, `COCCNC(=O)c1ccc2c(c1)nc(Nc1nc3ccc(OC(F)(F)F)cc3o1)n2CC1CCOC1` (centres unmarked) [Example 88, N-(2-methoxyethyl)-1-((tetrahydrofuran-3-yl)methyl)-2-((6-(trifluoromethoxy)benzo[d]oxazol-2-yl)amino)-1H-benzo[d]imidazole-5-carboxamide]: 1.5 µM.
